Laboratory results published in publication PMC4632323, “Development of a neuroprotective peptide that preserves survival pathways by preventing Kidins220/ARMS calpain processing induced by excitotoxicity” (Cell Death & Disease, 2015).
Where a SMILES comes first, the peptide text is derived from it. Where no end group is shown, it is not given here. The star is where a group is joined. Cbz = O=C(OCc1ccccc1)*

What was measured:
cortical neurons = assay: Calcein-AM/propidium iodide staining of viable and dead neurons after excitotoxicity; assay type: cell-based, rat; conditions: peptide 25 μM pre-incubated 1 h, NMDA 4 h; mean ± S.E.M., n=7
Procedure: Figure 5 Neuroprotective effect exerted by Tat-K transduction on excitotoxic neuronal death. (a) Effect of Tat-K on cell death induced by NMDAR overactivation. Primary cultures of cortical neurons (DIV 14) were pre-incubated for 1 h with Tat-S or Tat-K (25 μM) and treated with NMDA for 4 h or left untreated. Next, viable and dead cells were visualized by simultaneous fluorescence staining with calcein-AM (1 μM; green) and propidium iodide (PI; 0.5 mM; red), respectively, for 15 min at 37 °C in the dark. Representative images for each condition are shown. Scale bar, 25 μm. (b) Quantitation of Tat-K effect on the relative percentage of viable/dead neurons found in excitotoxic conditions. A minimum of five random fields containing at least 500 neurons each were counted per experimental condition. […] Statistical significance was determined by paired Student's t-test (**P<0.01). (c) Quantitation of the effect of Tat-K on neuronal viability after induction of excitotoxicity. […] Neuronal viability was established by MTT reduction assay after subtracting the contribution of the glial cells present in the mixed cultures to absorbance as indicated in the Methods section. […] Statistical significance was determined by paired Student's t-test (*P<0.05, **P<0.01) […]

Kidins220 [1] = assay: In vitro digestion of neuronal protein extracts with purified calpain I, immunoblot (Kid-Ct); assay type: biochemical, rat; conditions: calpain I 0-80 U/ml, 15 or 30 min, inhibitor 20 μM
Procedure: (c) Protein extracts from cortical neurons subjected to in vitro digestion with purified calpain I (0, 20, 50 or 80 U/ml) for 15 or 30 min in the absence or presence of calpain inhibitor CiIII (20 μM).
Protein extracts from cortical neurons were subjected to in vitro digestion with purified calpain I (20 U/ml) for 15 min in the presence of peptides Tat-K (K) or Tat-S (S) (0.5 μM). Results were analyzed by immunoblot with Kidins220 (Kid-Ct), spectrin and NSE antibodies.

Kidins220 [2] = assay: Kidins220 calpain processing induced by NMDAR overactivation in cortical neurons, immunoblot; assay type: cell-based, rat; conditions: inhibitor added 1 h before NMDA 100 μM + glycine 10 μM, 4 h; CiIII 20 μM, lactacystin 15 μM; Kid-Nt immunoblot
Procedure: Figure 1 Approximate mapping of Kidins220 processing sites recognized by calpain after induction of excitotoxicity. (a) Immunoblot analysis of primary neuronal cultures (DIV 14) treated with high concentrations of NMDA (100 μM) and glycine (10 μM), herein indicated as NMDA, for 0–6 h. Kidins220 antibodies recognizing a C-terminal peptide (amino acids 1746–1762; Kid-Ct) or the N-terminal region (amino acids 1–402; Kid-Nt), or that specific for the protein neuronal-specific enolase (NSE) were used. Bands corresponding to endogenous full-length (FL) Kidins220 or its different processing N-terminal fragments (Nt-0/Nt-9) are indicated. […]
(a) Cell-membrane peptide Tat-K contains from the N- to the C-terminus amino acids 47–57 of the HIV-1 Tat protein (italic) followed by two proline linker residues and rat Kidins220 amino acids 1668–1681 (bold), which include the major calpain cleavage site (arrow). […] Results were analyzed by immunoblot with Kidins220 (Kid-Ct), spectrin and NSE antibodies. […] Primary cultures of neurons (DIV 14) were incubated with 5, 10 or 25 μM of FITC-labeled control peptide (FITC-Tat-S) for 2, 4 or 6 h and pictures were taken in a conventional fluorescence microscope. […] Cortical neurons were pre-incubated for 1 h with 10 or 25 μM of Tat-K (K) or Tat-S (S) before NMDA addition for 4 h and analyzed by immunoblot with Kidins220 (Kid-Ct), spectrin and NSE antibodies. […]

## YGRKKRRQRRRPPNTTTLSNLPTNVRN [Tat-S]
Cortical neurons
  Viable neurons (calcein-AM) relative to total number of neurons: 23±7%

## YGRKKRRQRRRPPLNRTPSTVTLNNNT [Tat-K]
Cortical neurons
  Viable neurons (calcein-AM) relative to total number of neurons: 40±7%

## CC(C)[C@H](NC(=O)OCc1ccccc1)C(=O)N[C@H](C=O)Cc1ccccc1 [CiIII, carbobenzoxy–valinyl–phenylalaninal] (Cbz-Val-Phe-aldehyde)
Kidins220 [1]
  Effect on calpain I cleavage of Kidins220 (decrease of FL-Kidins220 and accumulation of Ct-0): inhibited
Kidins220 [2]
  Effect on NMDA-induced Kidins220 processing (Nt-1/Nt-9 production): strongly prevented NMDA-induced processing
